What was measured:
Format in all cases: in vivo
Zymoseptoria tritici = assay: Test A: wheat leaf blotch, preventive spray on wheat seedlings; conditions: 100 = 100% disease control, 0 = no control; for pest or weed control at 50 ppm: Zymoseptoria tritici, read-out: Test A disease control rating
Description: (§1) General protocol for preparing test suspensions for Tests A-F: the test compounds were first dissolved in acetone in an amount equal to 3% of the final volume and then suspended at the desired concentration (in ppm) in acetone and purified water (50/50 mix by volume) containing 250 ppm of the surfactant PEG400 (polyhydric alcohol esters). The resulting test suspensions were then used in Tests A-F.
(§2) The test solution was sprayed to the point of run-off on wheat seedlings. The following day the seedlings were inoculated with a spore suspension of Zymoseptoria tritici (the causal agent of wheat leaf blotch) and incubated in a saturated atmosphere at 24° C. for 48 h, and then moved to a growth chamber at 20° C. for 17 days, after which time disease ratings were made.
(§3) A rating of 100 indicates 100% disease control and a rating of 0 indicates no disease control (relative to the controls). A dash (-) indicates the compound was not tested.

[1] = test system: Puccinia recondita f. sp. tritici; assay: Test B: wheat leaf rust, preventive spray on wheat seedlings; conditions: 100 = 100% disease control, 0 = no control; for pest or weed control at 50 ppm: Puccinia recondita, read-out: Test B disease control rating
Description: as §1
as §2, with “Puccinia recondita f. sp.” for “Zymoseptoria”, “rust)” for “blotch)”, “20°” for “24°”, “24” for “48”, “7” for “17”, “time visual” for “time”
as §3

[2] = test system: Blumeria graminis f. sp. tritici; assay: Test C: wheat powdery mildew, preventive spray on wheat seedlings; conditions: 100 = 100% disease control, 0 = no control; for pest or weed control at 50 ppm: Blumeria graminis, read-out: Test C disease control rating
Description: as §1
The test suspension was sprayed to the point of run-off on wheat seedlings. The following day the seedlings were inoculated with a spore dust of Blumeria graminis f. sp. tritici, (also known as Eysiphe graminis f. sp. tritici, the causal agent of wheat powdery mildew) and incubated in a growth chamber at 20° C. for 8 days, after which time visual disease ratings were made.
as §3

Phakopsora pachyrhizi = assay: Test D: Asian soybean rust, preventive spray on soybean seedlings; conditions: 100 = 100% disease control, 0 = no control; for pest or weed control at 50 ppm: Phakopsora pachyrhizi, 216 h, read-out: Test D disease control rating
Description: as §1
The test solution was sprayed to the point of run-off on soybean seedlings. The following day the seedlings were inoculated with a spore suspension of Phakopsora pachyrhizi (the causal agent of Asian soybean rust) and incubated in a saturated atmosphere at 22° C. for 24 h and then moved to a growth chamber at 22° C. for 8 days, after which time visual disease ratings were made.
as §3

Botrytis cinerea = assay: Test E: tomato Botrytis, preventive spray on tomato seedlings; conditions: 100 = 100% disease control, 0 = no control; for pest or weed control at 50 ppm: Botrytis cinerea, read-out: Test E disease control rating
Description: as §1
(§4) The test suspension was sprayed to the point of run-off on tomato seedlings. The following day the seedlings were inoculated with a spore suspension of Botrytis cinerea (the causal agent of tomato Botrytis) and incubated in a saturated atmosphere at 20° C. for 48 h, and then moved to a growth chamber at 24° C. for 3 days, after which time visual disease ratings were made.
as §3

Alternaria solani = assay: Test F: tomato early blight, preventive spray on tomato seedlings; conditions: 100 = 100% disease control, 0 = no control; for pest or weed control at 50 ppm: Alternaria solani, read-out: Test F disease control rating
Description: as §1
as §4, with “Alternaria solani” for “Botrytis cinerea”, “early blight)” for “Botrytis)”, “27°” for “20°”, “20°” for “24°”
as §3

## COc1ccc(Cl)c(-c2cn(C)c(=O)cc2-c2ccccc2Br)c1 [Compound 62]
Zymoseptoria tritici; 50 ppm
  Test A disease control rating: 37%
[1]; 50 ppm
  Test B disease control rating: 74%
[2]; 50 ppm
  Test C disease control rating: 0%
Phakopsora pachyrhizi; 50 ppm
  Test D disease control rating: 0%
Botrytis cinerea; 50 ppm
  Test E disease control rating: 98%
Alternaria solani; 50 ppm
  Test F disease control rating: 0%

## COc1ccc(Cl)c(-c2cn(C)c(=O)cc2-c2ccccc2C(F)(F)F)c1 [Compound 70]
Zymoseptoria tritici; 50 ppm
  Test A disease control rating: 50%
[1]; 50 ppm
  Test B disease control rating: 68%
[2]; 50 ppm
  Test C disease control rating: 83%
Phakopsora pachyrhizi; 50 ppm
  Test D disease control rating: 0%
Botrytis cinerea; 50 ppm
  Test E disease control rating: 93%
Alternaria solani; 50 ppm
  Test F disease control rating: 0%

## COc1ccc(Cl)c(-c2cn(C)c(=O)c(C)c2-c2ccc(F)cc2Cl)c1 [Compound 43, 4-(2-chloro-4-fluorophenyl)-5-(2-chloro-5-methoxyphenyl)-1,3-dimethyl-2(1H)-pyridinone]
Zymoseptoria tritici; 50 ppm
  pest or weed control at 50 ppm: 100%
[1]; 50 ppm
  pest or weed control at 50 ppm: 100%
[2]; 50 ppm
  pest or weed control at 50 ppm: 100%
Phakopsora pachyrhizi; 50 ppm
  pest or weed control at 50 ppm: 97%
Botrytis cinerea; 50 ppm
  pest or weed control at 50 ppm: 98%
Alternaria solani; 50 ppm
  pest or weed control at 50 ppm: 100%

## COc1cc(OC)cc(-c2cn(C)c(=O)c(C)c2-c2ccc(F)cc2Cl)c1 [Compound 12]
Zymoseptoria tritici; 50 ppm
  Test A disease control rating: 100%
[1]; 50 ppm
  Test B disease control rating: 99%
[2]; 50 ppm
  Test C disease control rating: 40%
Phakopsora pachyrhizi; 50 ppm
  Test D disease control rating: 83%
Botrytis cinerea; 50 ppm
  Test E disease control rating: 92%
Alternaria solani; 50 ppm
  Test F disease control rating: 99%

## Cn1cc(-c2ccc(F)cc2F)c(-c2ccc(F)cc2F)c(Cl)c1=O [Compound 41]
Zymoseptoria tritici; 50 ppm
  Test A disease control rating: 100%
[1]; 50 ppm
  Test B disease control rating: 96%
[2]; 50 ppm
  Test C disease control rating: 96%
Phakopsora pachyrhizi; 50 ppm
  Test D disease control rating: 69%
Botrytis cinerea; 50 ppm
  Test E disease control rating: 91%
Alternaria solani; 50 ppm
  Test F disease control rating: 91%

## COc1ccc(Cl)c(-c2cn(C)c(=O)cc2-c2ccc(F)cc2Cl)c1 [Compound 31]
Zymoseptoria tritici; 50 ppm
  Test A disease control rating: 96%
[1]; 50 ppm
  Test B disease control rating: 96%
[2]; 50 ppm
  Test C disease control rating: 0%
Phakopsora pachyrhizi; 50 ppm
  Test D disease control rating: 0%
Botrytis cinerea; 50 ppm
  Test E disease control rating: 99%
Alternaria solani; 50 ppm
  Test F disease control rating: 0%

## Cc1cc(F)ncc1-c1cn(C)c(=O)c(Cl)c1-c1ccc(F)cc1Cl [Compound 60]
Zymoseptoria tritici; 50 ppm
  Test A disease control rating: 99%
[1]; 50 ppm
  Test B disease control rating: 95%
[2]; 50 ppm
  Test C disease control rating: 73%
Phakopsora pachyrhizi; 50 ppm
  Test D disease control rating: 65%
Botrytis cinerea; 50 ppm
  Test E disease control rating: 97%
Alternaria solani; 50 ppm
  Test F disease control rating: 40%

## COc1ccc(Cl)c(-c2cn(C)c(=O)c(Cl)c2-c2ccc(F)cc2Cl)c1 [Compound 32, 3-chloro-4-(2-chloro-4-fluorophenyl)-5-(2-chloro-5-methoxyphenyl)-1-methyl-2(1H)-pyridinone]
Zymoseptoria tritici; 50 ppm
  pest or weed control at 50 ppm: 100%
[1]; 50 ppm
  pest or weed control at 50 ppm: 100%
[2]; 50 ppm
  pest or weed control at 50 ppm: 99%
Phakopsora pachyrhizi; 50 ppm
  pest or weed control at 50 ppm: 99%
Botrytis cinerea; 50 ppm
  pest or weed control at 50 ppm: 100%
Alternaria solani; 50 ppm
  pest or weed control at 50 ppm: 100%

## CCCOc1ccc(Cl)c(-c2cn(C)c(=O)c(Cl)c2-c2ccc(F)cc2F)c1 [Compound 10]
Zymoseptoria tritici; 50 ppm
  Test A disease control rating: 99%
[1]; 50 ppm
  Test B disease control rating: 99%
[2]; 50 ppm
  Test C disease control rating: 79%
Phakopsora pachyrhizi; 50 ppm
  Test D disease control rating: 0%
Botrytis cinerea; 50 ppm
  Test E disease control rating: 94%
Alternaria solani; 50 ppm
  Test F disease control rating: 0%

## COc1cc(OC)c(Cl)c(-c2cn(O)c(=O)c(Cl)c2-c2ccc(F)cc2Cl)c1 [Compound 39, 3-chloro-5-(2-chloro-3,5-dimethoxyphenyl)-4-(2-chloro-4-fluorophenyl)-1-hydroxy-2(1H)-pyridinone]
Zymoseptoria tritici; 50 ppm
  pest or weed control at 50 ppm: 69%
[1]; 50 ppm
  pest or weed control at 50 ppm: 86%
[2]; 50 ppm
  pest or weed control at 50 ppm: 0%
Phakopsora pachyrhizi; 50 ppm
  pest or weed control at 50 ppm: 77%
Botrytis cinerea; 50 ppm
  pest or weed control at 50 ppm: 56%
Alternaria solani; 50 ppm
  pest or weed control at 50 ppm: 0%

## COc1ccc(Cl)c(-c2cn(C)c(=O)c(Cl)c2-c2cccc(F)c2F)c1 [Compound 64]
Zymoseptoria tritici; 50 ppm
  Test A disease control rating: 98%
[1]; 50 ppm
  Test B disease control rating: 100%
[2]; 50 ppm
  Test C disease control rating: 87%
Phakopsora pachyrhizi; 50 ppm
  Test D disease control rating: 87%
Botrytis cinerea; 50 ppm
  Test E disease control rating: 96%
Alternaria solani; 50 ppm
  Test F disease control rating: 100%

## Cc1c(-c2ccc(F)cc2Cl)c(-c2cc(F)ccc2Cl)cn(C)c1=O [Compound 18]
Zymoseptoria tritici; 50 ppm
  Test A disease control rating: 100%
[1]; 50 ppm
  Test B disease control rating: 100%
[2]; 50 ppm
  Test C disease control rating: 94%
Phakopsora pachyrhizi; 50 ppm
  Test D disease control rating: 96%
Botrytis cinerea; 50 ppm
  Test E disease control rating: 98%
Alternaria solani; 50 ppm
  Test F disease control rating: 99%

## Cn1cc(-c2ccccc2Cl)c(-c2ccc(F)cc2F)c(Cl)c1=O [Compound 48]
Zymoseptoria tritici; 50 ppm
  Test A disease control rating: 99%
[1]; 50 ppm
  Test B disease control rating: 99%
[2]; 50 ppm
  Test C disease control rating: 72%
Phakopsora pachyrhizi; 50 ppm
  Test D disease control rating: 77%
Botrytis cinerea; 50 ppm
  Test E disease control rating: 96%
Alternaria solani; 50 ppm
  Test F disease control rating: 96%

## Cn1cc(-c2cc(F)ccc2Cl)c(-c2ccc(F)cc2Cl)c(I)c1=O [Compound 2]
Zymoseptoria tritici; 50 ppm
  Test A disease control rating: 100%
[1]; 50 ppm
  Test B disease control rating: 98%
[2]; 50 ppm
  Test C disease control rating: 0%
Phakopsora pachyrhizi; 50 ppm
  Test D disease control rating: 0%
Botrytis cinerea; 50 ppm
  Test E disease control rating: 91%
Alternaria solani; 50 ppm
  Test F disease control rating: 33%

## Cn1cc(-c2cc(F)ccc2Cl)c(-c2ccc(F)cc2Cl)c(C#N)c1=O [Compound 14]
Zymoseptoria tritici; 50 ppm
  Test A disease control rating: 100%
[1]; 50 ppm
  Test B disease control rating: 100%
[2]; 50 ppm
  Test C disease control rating: 0%
Phakopsora pachyrhizi; 50 ppm
  Test D disease control rating: 0%
Botrytis cinerea; 50 ppm
  Test E disease control rating: 96%
Alternaria solani; 50 ppm
  Test F disease control rating: 0%

## COc1ccc(Cl)c(-c2cn(C)c(=O)c(Cl)c2-c2ccc(C#N)cc2Cl)c1 [Compound 56]
Zymoseptoria tritici; 50 ppm
  Test A disease control rating: 100%
[1]; 50 ppm
  Test B disease control rating: 100%
[2]; 50 ppm
  Test C disease control rating: 98%
Phakopsora pachyrhizi; 50 ppm
  Test D disease control rating: 97%
Botrytis cinerea; 50 ppm
  Test E disease control rating: 96%
Alternaria solani; 50 ppm
  Test F disease control rating: 99%

## COc1ccc(Cl)c(-c2cn(C)c(=O)cc2-c2ccc(C#N)cc2Cl)c1 [Compound 59]
Zymoseptoria tritici; 50 ppm
  Test A disease control rating: 99%
[1]; 50 ppm
  Test B disease control rating: 92%
[2]; 50 ppm
  Test C disease control rating: 0%
Phakopsora pachyrhizi; 50 ppm
  Test D disease control rating: 0%
Botrytis cinerea; 50 ppm
  Test E disease control rating: 95%
Alternaria solani; 50 ppm
  Test F disease control rating: 0%

## Cn1cc(-c2cc(F)ccc2Cl)c(-c2ccc(F)cc2F)c(Cl)c1=O [Compound 40]
Zymoseptoria tritici; 50 ppm
  Test A disease control rating: 100%
[1]; 50 ppm
  Test B disease control rating: 100%
[2]; 50 ppm
  Test C disease control rating: 98%
Phakopsora pachyrhizi; 50 ppm
  Test D disease control rating: 92%
Botrytis cinerea; 50 ppm
  Test E disease control rating: 94%
Alternaria solani; 50 ppm
  Test F disease control rating: 99%

## Cn1cc(-c2cc(F)ccc2Cl)c(-c2ccc(F)cc2Cl)c(Cl)c1=O [Compound 1]
Zymoseptoria tritici; 50 ppm
  Test A disease control rating: 100%
[1]; 50 ppm
  Test B disease control rating: 100%
[2]; 50 ppm
  Test C disease control rating: 0%
Phakopsora pachyrhizi; 50 ppm
  Test D disease control rating: 0%
Botrytis cinerea; 50 ppm
  Test E disease control rating: 98%
Alternaria solani; 50 ppm
  Test F disease control rating: 46%

## COc1cc(-c2cn(C)c(=O)c(Cl)c2-c2ccc(F)cc2F)ccc1Br [Compound 21]
Zymoseptoria tritici; 50 ppm
  Test A disease control rating: 70%
[1]; 50 ppm
  Test B disease control rating: 96%
[2]; 50 ppm
  Test C disease control rating: 0%
Phakopsora pachyrhizi; 50 ppm
  Test D disease control rating: 0%
Botrytis cinerea; 50 ppm
  Test E disease control rating: 94%
Alternaria solani; 50 ppm
  Test F disease control rating: 91%

## COc1cccc(-c2c(-c3ccc(F)cc3Cl)c(C#N)c(=O)n(C)c2C)c1 [Compound 6]
Zymoseptoria tritici; 250 ppm
  Test A disease control rating: 0%
[1]; 250 ppm
  Test B disease control rating: 0%
[2]; 250 ppm
  Test C disease control rating: 89%
Phakopsora pachyrhizi; 250 ppm
  Test D disease control rating: 0%
Botrytis cinerea; 250 ppm
  Test E disease control rating: 0%
Alternaria solani; 250 ppm
  Test F disease control rating: 0%

## COc1ccc(Cl)c(-c2cn(C)c(=O)c(Cl)c2-c2ccc(F)cc2Br)c1 [Compound 71]
Zymoseptoria tritici; 50 ppm
  Test A disease control rating: 100%
[1]; 50 ppm
  Test B disease control rating: 100%
[2]; 50 ppm
  Test C disease control rating: 100%
Phakopsora pachyrhizi; 50 ppm
  Test D disease control rating: 73%
Botrytis cinerea; 50 ppm
  Test E disease control rating: 96%
Alternaria solani; 50 ppm
  Test F disease control rating: 99%

## COc1cc(OC)c(Cl)c(-c2cn(OCC(F)F)c(=O)c(Cl)c2-c2ccc(F)cc2Cl)c1 [Compound 37]
Zymoseptoria tritici; 50 ppm
  Test A disease control rating: 68%
[1]; 50 ppm
  Test B disease control rating: 99%
[2]; 50 ppm
  Test C disease control rating: 0%
Phakopsora pachyrhizi; 50 ppm
  Test D disease control rating: 87%
Botrytis cinerea; 50 ppm
  Test E disease control rating: 88%
Alternaria solani; 50 ppm
  Test F disease control rating: 0%

Reference: patent US20240215577A1, “FUNGICIDAL PYRIDONES” (FMC Corporation, priority 2021, published 2024)
